In patent US11389465B2, “Phosphorylated hexaacyl disaccharides (PHADs) for treating or preventing infections” (VANDERBILT UNIVERSITY, priority 2017, dated 2022):

Tests used:
[1] = tested on: P. aeruginosa; assay: Pseudomonas pneumonia in burned sheep treated with MPLA (FIG. 14); format: in vivo
Protocol: FIG. 14. MPLA treatment improves oxygenation and pulmonary mechanics and attenuates lactate production in sheep with Pseudomonas pneumonia. Studies were undertaken to assess oxygenation, pulmonary mechanics and hemodynamics in burned sheep treated with vehicle or MPLA prior to intrapulmonary challenge with P. aeruginosa. Sheep received a 20% total body surface area thermal burn followed 24 hours later by MPLA infusion. Intrapulmonary P. aeruginosa infection was induced at 24 hours after MPLA infusion. […] Hemodynamics and pulmonary function were measured for 24 hours after Pseudomonas infection.

[2] = tested on: P. aeruginosa; details: 20 μg IP on 2 consecutive days, compared to vehicle
[3] = in vivo; cited from earlier work
[4] = tested on: C. albicans; assay: Systemic (intravenous) C. albicans infection in MPLA-primed mice (FIG. 2); format: in vivo; details: MPLA 20 μg; intravenous C. albicans 1×10^8 CFU
Protocol: (§1) FIG. 2. MPLA induces resistance to S. aureus and C. albicans infection. A) WT BALB/c mice were injected with intravenous MPLA (20 μg/mouse) or vehicle one and two days prior to intravenous inoculation with intravenous 10^8 cfu S. aureus or 10^8 cfu C. albicans. B) Kaplan Meier survival curve of vehicle- and MPLA-primed mice. (n=12 mice/group) after S. aureus inoculation. C) Core (rectal) body temperature assessed daily after S. aureus inoculation. D) S. aureus cfu per gram of tissue recoverable from whole spleen, lung, and kidney in vehicle and MPLA-primed mice at 3 days after S. aureus inoculation. E) Concentration of serum IL-6 2 hours after S. aureus inoculation or vehicle. F) Concentration of serum BUN 3 days after S. aureus inoculation or vehicle. G) Kaplan Meier survival curve of vehicle- and MPLA-primed mice. (n=12 mice/group) after intravenous 10^8 cfu C. albicans inoculation. H) Core (rectal) body temperature after C. albicans inoculation. Data shown as mean+/−SEM. For Kaplan-Meier plots *, p<0.05 via log-rank Mantel-Cox test. Otherwise, *, p<0.05 as determined by ANOVA with Tukey's post-hoc multiple comparison test.
(§2) MPLA is also effective in improving survival in models of systemic S. aureus and C. albicans infection. Mice treated with MPLA (20 μg) after a 20% cutaneous burn received intravenous challenge with S. aureus or C. albicans (1×10^8 CFU) on day 5 post-burn (FIG. 2).

[5] = tested on: Pseudomonas aeruginosa; assay: Duration of MPLA activity, intraperitoneal P. aeruginosa challenge (FIG. 4); format: in vivo, mice
Protocol: FIG. 4. Duration of MPLA activity. Mice were treated with MPLA (20 μg IP) for 2 consecutive days and challenged with P. aeruginosa at the designated times after the last MPLA treatment. *<0.05 compared to vehicle control.
It is important to know how long the effect of PHADs lasts to guide dosing frequency. Studies were performed with MPLA that show a duration of action of up to 10 days. Mice were treated with MPLA on 2 consecutive days (20 μg, IP) followed by intraperitoneal challenge with Pseudomonas aeruginosa (1×10^8) at 1, 7, 10 or 15 days after the last MPLA treatment (FIG. 4).

[6] = tested on: S. aureus; assay: Systemic (intravenous) S. aureus infection in MPLA-primed mice (FIG. 2); format: in vivo; details: MPLA 20 μg
Protocol: as §1, §2

[7] = infusion; not at lower doses; cited from earlier work
[8] = tested on: Bone marrow derived macrophages (BMDMs); assay: Metabolic reprogramming of bone marrow derived macrophages by MPLA (FIG. 11); format: cell-based; details: 1 μg/mL MPLA for 24 hours
Protocol: FIG. 11. MPLA drives persistent and dynamic metabolic reprogramming in macrophages. A) Bone marrow derived macrophages (BMDMs) were primed with 1 μg/mL MPLA for 24 hours, washed, and rested for 3 days (3 dp macrophages). These macrophages were compared to BMDMs stimulated with 1 μg/mL MPLA for 24 hours prior to assessment (24 hr macrophages) and untreated BMDMs (control). B) Glycolysis stress test of macrophages as determined by the Seahorse Xf^e96. C) Maximal extracellular acidification rate (ECAR) derived after the addition of oligomycin in the glycolysis stress test D) Glucose consumed from BMDMs over 24 hours, as determined by glucose concentration in cell-free medium subtracted by cell-containing medium. E) Lactate produced by BMDMs over 24 hours, as determined by lactate in cell-containing medium subtracted by cell free medium. F) Basal oxygen consumption rate (OCR) determined after the addition of glucose in the glycolysis stress test. G) Mitochondrial stress test of BMDMs as determined by the Seahorse Xfi96. H) Maximal oxidative rate derived after the addition of FCCP in the mitochondrial stress test. I) Intracellular ATP from BMDMs as determined by luminescence assay. Some BMDMs were exposed to 10 mM 2-DG or IlpM oligomycin for 3 hours prior to the assay. J) MitoTracker Green staining of BMDMs as determined by flow cytometry. K) Mitochondrial DNA (mtDNA)/nuclear DNA (nucDNA) as determined by qPCR. L) Succinate dehydrogenase (SDHA), citrate synthase (CS), and β-actin as determined by western blot. All bands shown derived from the same samples. […] Densitometry of SDHA and CS compared to β-actin derived from ImageJ shown. All experiments replicated at least twice. Data shown as mean+/−SEM. *, p<0.05 as determined by ANOVA with Tukey's post-hoc multiple comparison analysis.

Q: Which “oxygenation (PaO2/FiO2 ratio, oxygenation index, shunt fraction)” value ([1]; 24 hours after Pseudomonas infection, compared to controls) does the source give for Monophosphoryl Lipid A [MPLA] here?
A: significantly better

Q: And the survival ([1]; 72 hour study period)?
A: All sheep survived

Q: And the PaCO2 ([1]; MPLA vs vehicle)?
A: not significantly different between groups

Q: And the “decrease in plasma protein caused by pulmonary infection” value ([1]; MPLA vs vehicle, difference not significant)?
A: trended towards attenuation

Q: And the plasma lactate concentration ([1]; compared to controls)?
A: significantly lower

Q: What about the “bacterial burden (peritoneal cavity)” value ([2]; 6 hours after challenge) of the same substance?
A: decreased bacterial burden

Q: What about the “neutrophil and monocyte recruitment to the site of infection” value ([2]; 6 hours after challenge) of the same substance?
A: markedly enhanced

Q: What about the infection-induced hypothermia [2] of the same substance?
A: attenuated infection-induced hypothermia

Q: What about the “dose relative to LPS that can be administered to humans before adverse side effects occur” value [3] of the same substance?
A: 1000-10,000 times

Q: And the survival [4]?
A: 40%

Q: What about the duration of action ([5]; MPLA 20 μg IP on 2 consecutive days) of the same substance?
A: up to 10 days

Q: What about the bacterial burden ([5]; challenge at 1, 7 and 10 days after last MPLA treatment, compared to vehicle) of the same substance?
A: significantly lower bacterial burden

Q: And the attenuation of hypothermia ([5]; challenge up to 15 days after last MPLA treatment)?
A: persisted until day 15

Q: And the infection-induced hypothermia ([6]; FIG. 2 C-F, H)?
A: attenuated infection-induced hypothermia

Q: What about the kidney injury ([6]; FIG. 2 C-F, H) of the same substance?
A: less kidney injury

Q: What about the plasma cytokine concentrations ([6]; FIG. 2 C-F, H) of the same substance?
A: lower plasma cytokine concentrations

Q: What about the survival ([6]; intravenous S. aureus 1×10^8 CFU) of the same substance?
A: 90%

Q: What about the “MPLA dose at which humans show subjective changes consistent with systemic inflammation” value [7] of the same substance?
A: 0.01 mg/kg

Q: What about the ATP production [8] of the same substance?
A: enhances ATP production

Q: And the “macrophage metabolism: glycolysis and oxygen consumption” value [8]?
A: increased glycolysis and oxygen consumption

Q: And the mitochondrial biogenesis [8]?
A: enhances
